Assay [1] concerns the target T1, human recombinant serotonin (5-Hydroxytryptamine) 5-HT6 receptor (Homo sapiens, UniProt P50406).
T1 construct: expressed in transfected cells; host or cells: human HeLa cells
Briefly: Serotonin 5-HT6 radioligand binding ([3H]LSD). The conditions noted are these: read-out: Serotonin 5-HT6, inhibition of ligand binding (1 μM). The method, then: To evaluate in radioligand binding assays the activity of compounds of the invention, human recombinant serotonin (5-Hydroxytryptamine) 5-HT6 receptor expressed in human HeLa cells (Monsma, F. J. Jr. et al., Mol. Pharmacol. 43:320, 1993) in a modified Tris-HCl buffer (50 mM Tris-HCl, pH 7.4, 150 mM NaCl, 2 mM Ascorbic Acid, 0.001% BSA) was used. Compounds of the invention were incubated with 1.5 nM [3H]Lysergic acid diethylamide (LSD) for 120 minutes at 37° C. Non-specific binding was estimated in the presence of 5 μM Serotonin (5-HT). Receptor proteins were filtered and washed, the filters were then counted to determine [3H]LSD specifically bound. Compounds were screened at 1 μM or lower, using 1% DMSO as vehicle. Biochemical assay results are presented as the percent inhibition of specific binding in Table 4.

Assay [2] addresses T2, human recombinant serotonin (5-Hydroxytryptamine) 5-HT2C receptor (Homo sapiens, UniProt P28335).
T2 construct: expressed in transfected cells; host or cells: CHO-K1 cells
T2 sequence (P28335 33-458): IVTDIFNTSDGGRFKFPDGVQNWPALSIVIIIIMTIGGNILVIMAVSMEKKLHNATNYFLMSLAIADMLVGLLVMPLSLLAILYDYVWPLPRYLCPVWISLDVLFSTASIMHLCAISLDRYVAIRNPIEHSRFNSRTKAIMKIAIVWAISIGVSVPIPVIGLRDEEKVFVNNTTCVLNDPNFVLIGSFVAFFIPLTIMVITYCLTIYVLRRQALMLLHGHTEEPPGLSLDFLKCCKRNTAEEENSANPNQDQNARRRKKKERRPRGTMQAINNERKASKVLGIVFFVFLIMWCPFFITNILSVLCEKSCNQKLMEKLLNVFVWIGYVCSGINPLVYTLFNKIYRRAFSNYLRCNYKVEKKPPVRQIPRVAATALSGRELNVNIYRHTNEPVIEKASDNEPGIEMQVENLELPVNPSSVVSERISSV
Briefly: Serotonin 5-HT2C radioligand binding ([3H]Mesulergine). To be noted: read-out: Serotonin 5-HT2C, inhibition of ligand binding (1 μM). The method, then:
To evaluate in radioligand binding assays the activity of compounds of the invention, human recombinant serotonin (5-Hydroxytryptamine) 5-HT2C receptor expressed in Chinese hamster ovary (CHO-K1) cells (Wolf, W. A. and Schutz, J. S., J. Neurochem. 69:1449, 1997) in a modified Tris-HCl buffer (50 mM Tris-HCl, pH 7.4, 0.1% Ascorbic Acid, 10 μM Pargyline) was used. Compounds of the invention were incubated with 1 nM [^3H]Mesulergine for 60 minutes at 25° C. Non-specific binding was estimated in the presence of 1 μM Mianserin. Receptor proteins were filtered and washed, the filters were then counted to determine [^3H]Mesulergine specifically bound. Compounds were screened at 1 μM or lower, using 1% DMSO as vehicle. Biochemical assay results are presented as the percent inhibition of specific binding in Table 4.

Assay [3] deals with T3, human recombinant adrenergic α2A receptor (Homo sapiens, UniProt P08913).
T3 construct: expressed in transfected cells; host or cells: insect Sf9 cells
T3 sequence (P08913 1-465): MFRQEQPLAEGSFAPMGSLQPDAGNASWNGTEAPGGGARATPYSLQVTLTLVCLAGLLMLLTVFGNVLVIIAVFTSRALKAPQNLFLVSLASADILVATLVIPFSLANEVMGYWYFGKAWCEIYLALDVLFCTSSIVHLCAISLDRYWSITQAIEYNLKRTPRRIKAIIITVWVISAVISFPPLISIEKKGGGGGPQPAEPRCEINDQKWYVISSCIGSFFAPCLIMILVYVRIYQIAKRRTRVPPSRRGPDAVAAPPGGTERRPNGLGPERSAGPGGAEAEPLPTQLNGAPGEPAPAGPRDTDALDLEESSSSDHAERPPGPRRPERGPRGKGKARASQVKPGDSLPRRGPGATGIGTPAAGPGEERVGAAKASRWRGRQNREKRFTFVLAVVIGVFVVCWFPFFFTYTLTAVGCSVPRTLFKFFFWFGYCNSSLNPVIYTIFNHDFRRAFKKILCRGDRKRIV
The assay is described as follows: Adrenergic α2A radioligand binding ([3H]MK-912). The conditions noted are these: for inhibition at 1 µM: read-out: Adrenergic α2A, inhibition of ligand binding (1 μM). The method, then: To evaluate in radioligand binding assays the activity of compounds of the invention, human recombinant adrenergic α2A receptor expressed in insect Sf9 cells (Uhlen S et al. J Pharmacol Exp Ther. 271:1558, 1994) in a modified Tris-HCl buffer (50 mM Tris-HCl, pH 7.4, 12.5 mM MgCl2, 2 mM EDTA) was used. Compounds of invention were incubated with 1 nM [^3H]MK-912 for 60 minutes at 25° C. MK912 is (2S-trans)-1,3,4,5′,6,6′,7,12b-octahydro-1′,3′-dimethyl-spiro[2H-benzofuro[2,3-a]quinolizine-2,4′(1′H) -pyrimidin]-2′(3′H)-one hydrochloride Non-specific binding was estimated in the presence of 10 μM WB-4101 (2-(2,6-Dimethoxyphenoxyethyl)aminomethyl-1,4-benzodioxane hydrochloride). Receptor proteins were filtered and washed, the filters were then counted to determine [^3H]MK-912 specifically bound. Compounds were screened at 1 μM or lower, using 1% DMSO as vehicle. Biochemical assay results are presented as the percent inhibition of specific binding in Table 3.

T1 sequence (P50406 whole entry): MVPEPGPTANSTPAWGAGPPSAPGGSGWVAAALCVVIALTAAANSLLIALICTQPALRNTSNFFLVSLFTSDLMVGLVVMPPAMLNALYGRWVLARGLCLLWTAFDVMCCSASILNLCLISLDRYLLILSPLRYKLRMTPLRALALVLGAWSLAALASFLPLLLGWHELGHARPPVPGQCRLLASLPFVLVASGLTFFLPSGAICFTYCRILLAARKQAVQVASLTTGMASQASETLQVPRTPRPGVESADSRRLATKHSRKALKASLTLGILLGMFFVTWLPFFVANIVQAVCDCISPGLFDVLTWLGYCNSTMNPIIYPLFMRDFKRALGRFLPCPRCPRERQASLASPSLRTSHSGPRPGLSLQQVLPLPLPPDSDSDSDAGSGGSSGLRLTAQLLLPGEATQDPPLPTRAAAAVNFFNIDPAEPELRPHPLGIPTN

In the case of `CN1C2CCC1c1c(n(CCC#N)c3ccc(Cl)cc13)C2` (centres unmarked) [Compound 107], the inhibition at 1 µM in assay [1] was -3%; in assay [2], 25%; in assay [3], 42%.

Consider `CN1[C@@H]2CC[C@H]1c1c(n(CCc3ccc(C(F)(F)F)nc3)c3ccccc13)C2` [Compound 97], for which the inhibition at 1 µM stood at 8% in assay [1], 97% in assay [2] and 26% in assay [3].

Turning to `C/C(=C\n1c2c(c3cc(C)ccc31)C1CCC(C2)N1C)c1ccc(Cl)cc1` (centres unmarked) [Compound 116], the inhibition at 1 µM in assay [1] was determined as 10%; in assay [2], 97%; in assay [3] it was 83%.

As for `Cc1ccc2c(c1)c1c(n2CC(C)(O)c2ccc(Cl)cc2)CC2CCC1N2C` (centres unmarked) [Compound 54], the inhibition at 1 µM amounted to 26% in assay [1], 93% in assay [2] and 75% in assay [3].

With `CN1C2CCC1c1c(n(CC(=O)c3ccc(Cl)cc3)c3ccc(Cl)cc13)C2` (centres unmarked) [Compound 111], the results for the inhibition at 1 µM in assay [1], in assay [2] and in assay [3] were 38%, 81% and 89%, respectively.

Consider `COc1ccc(C(C)(O)Cn2c3c(c4cc(Cl)ccc42)C2CCC(C3)N2C)cc1F` (centres unmarked) [Compound 160], for which the inhibition at 1 µM came to 29% in assay [1], 93% in assay [2] and 63% in assay [3].

With `CN1C2CCC1c1c(n(CCC(=O)N3CCCC3)c3ccc(Cl)cc13)C2` (centres unmarked) [Compound 5], the results for the inhibition at 1 µM in assay [1], in assay [2] and in assay [3] were 7%, -9% and 4%, respectively.

Consider `C/C(=C/n1c2c(c3ccccc31)[C@@H]1CC[C@H](C2)N1C)c1ccc(F)cc1` [Compound 121], for which the inhibition at 1 µM in assay [1] was determined as 65%; in assay [2], 88%; in assay [3] it was 55%.

On to `CN1C2CCC1c1c(n(CCCc3ccc(Cl)cc3)c3ccc(Cl)cc13)C2` (centres unmarked) [Compound 39], for which the figures for the inhibition at 1 µM in assay [1], in assay [2] and in assay [3] were 24%, 94% and 68%, respectively.

For `Cc1ncc(CCn2c3c(c4cc(Cl)ccc42)C2CCC(C3)N2C)cn1` (centres unmarked) [Compound 82], the inhibition at 1 µM in assay [1] was 13%; in assay [2], 60%; in assay [3], 5%.

Take `CN1C2CCC1c1c(n(CCC(=O)N3CCNCC3)c3ccc(Cl)cc13)C2` (centres unmarked) [Compound 9]: the inhibition at 1 µM in assay [1] came out at 2%; in assay [2], 5%; in assay [3], 9%.

On to `Cc1ccc(CCCn2c3c(c4cc(Cl)ccc42)C2CCC(C3)N2C)cn1` (centres unmarked) [Compound 38], for which the inhibition at 1 µM was 17% in assay [1], 23% in assay [2] and 33% in assay [3].

For `Cc1ccc2c(c1)c1c(n2CCc2nc(-c3ccccc3)cs2)CC2CCC1N2C` (centres unmarked) [Compound 114], the inhibition at 1 µM in assay [1] stood at 29%; in assay [2] it was 59%; in assay [3] it was 46%.

As to `CN1[C@@H]2CC[C@H]1c1c(n(CC(=O)N3CCCCC3)c3ccccc13)C2` [Compound 101], the inhibition at 1 µM in assay [1] came out at 15%; in assay [2] it was 94%; in assay [3] it was 18%.

As to `CN1[C@@H]2CC[C@H]1c1c(n(CCc3ccc(F)cc3)c3ccc(F)cc13)C2` [Compound 94, (+)-(7S,10R)-2-Fluoro-5-(4-fluorophenethyl)-11-methyl-5,6,7,8,9,10-hexahydro-7,10-iminocyclohept[b]indole], the values for the inhibition at 1 µM in assay [1], in assay [2] and in assay [3] were 21%, 75% and 56%, respectively.

`COc1ccc(/C(C)=C/n2c3c(c4cc(Cl)ccc42)C2CCC(C3)N2C)cc1F` (centres unmarked) [Compound 136]: the inhibition at 1 µM in assay [1] turned out to be 31%; in assay [2], 100%; in assay [3], 91%.

Consider `Cc1ccc2c(c1)c1c(n2CCc2cncc(Cl)c2)CC2CCC1N2C` (centres unmarked) [Compound 88], for which the inhibition at 1 µM in assay [1] worked out at 25%; in assay [2], 31%; in assay [3], 32%.

Take `Cc1ccc2c(c1)c1c(n2CCc2ccccc2)CC2CCC1N2C` (centres unmarked) [Compound 2]: the inhibition at 1 µM in assay [1] worked out at 82%; in assay [2], 79%; in assay [3], 100%. For the same molecule, the inhibition at 0.01 µM in assay [3] (10.0 nM, read-out: Adrenergic α2A, inhibition of ligand binding (10.0 nM)) was 47%. In addition, the inhibition at 0.1 µM in assay [3] (0.1 μM, read-out: Adrenergic α2A, inhibition of ligand binding (0.1 μM)) was 88%.

Turning to `CN1C2CCC1c1c(n(CCC(=O)N3CCNC(=O)C3)c3ccc(Cl)cc13)C2` (centres unmarked) [Compound 3], the inhibition at 1 µM stood at 3% in assay [1], 2% in assay [2] and 8% in assay [3].

In the case of `CN1C2CCC1c1c(n(CCC(=O)N3CCOCC3)c3ccc(Cl)cc13)C2` (centres unmarked) [Compound 13], the inhibition at 1 µM in assay [1] turned out to be 10%; in assay [2], 8%; in assay [3], 2%.

As to `CN1[C@@H]2CC[C@H]1c1c(n(CC(C)(O)c3ccc(F)cc3)c3ccccc13)C2` (some centres unmarked) [Compound 99], the inhibition at 1 µM in assay [1] is -2%; in assay [2], 75%; in assay [3] it was 25%.

Turning to `CN1C2CCC1c1c(n(C#Cc3ccc(F)cc3)c3ccc(Cl)cc13)C2` (centres unmarked) [Compound 138], the inhibition at 1 µM in assay [1] was 45%; in assay [2], 97%; in assay [3], 95%.

As to `CN1C2CCC1c1c(n(CC(=O)N3CCOCC3)c3ccc(Cl)cc13)C2` (centres unmarked) [Compound 59, 2-(2-chloro-11-methyl-5,6,7,8,9,10-Hexahydro-7,10-iminocyclohept[b]indol-5-yl)-1-morpholinoethanone], the results for the inhibition at 1 µM in assay [1], in assay [2] and in assay [3] were 0%, 8% and 17%, respectively.

With `Cc1ccc2c(c1)c1c(n2CC(O)c2ccc(C)nc2)CC2CCC1N2C` (centres unmarked) [Compound 91], the inhibition at 1 µM is -5% in assay [1], -4% in assay [2] and 29% in assay [3].

Take `Cc1ccc(CCn2c3c(c4ccccc42)C2CCC(C3)N2C)cn1` (centres unmarked) [Compound 92]: the inhibition at 1 µM was 3% in assay [1], 9% in assay [2] and 15% in assay [3].

On to `Cc1ccc2c(c1)c1c(n2CCc2cccnc2)CC2CCC1N2C` (centres unmarked) [Compound 86], for which the figures for the inhibition at 1 µM in assay [1], in assay [2] and in assay [3] were 60%, 72% and 63%, respectively.

As for `CC(=O)N1CCN(C(=O)CCn2c3c(c4cc(Cl)ccc42)C2CCC(C3)N2C)CC1` (centres unmarked) [Compound 8], the inhibition at 1 µM in assay [1] is -1%; in assay [2], -6%; in assay [3], -2%.

Values taken from patent US8546381B2, “Bridged heterocyclic compounds and methods of use” (Medivation Technologies, Inc., priority 2008, dated 2013).
